Data on 39 compounds can be found in patent US9790169B2, “IDO inhibitors” (BRISTOL-MYERS SQUIBB COMPANY, priority 2015, dated 2017).

The structures appear in SMILES notation.

The target of the test is human IDO1 (Homo sapiens, UniProt P14902). Briefly: Assessment of human IDO-1 inhibitory activity in HEK cells (human IDO1/HEK293 cells, kynurenine read-out with Ehrlich reagent, absorbance 490 nm). The test is classed as cell-based. Also on record: expressed in transfected cells. The settings on record: HEK Human IDO-1 cellular assay. The essentials: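 Kynurenine output from stably IDO1-transfected HEK293 cells (10,000/well, phenol red-free RPMI, 10% FBS) after 20 h compound exposure at 37 °C. The reaction was stopped with 0.2% TCA and heated 30 min at 50 °C, then the supernatant was mixed with Ehrlich reagent and read at 490 nm. IC50 was set against DMSO and a 500 nM reference standard as 0 and 100% inhibition.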
Sequence of human IDO1 (P14902 whole entry): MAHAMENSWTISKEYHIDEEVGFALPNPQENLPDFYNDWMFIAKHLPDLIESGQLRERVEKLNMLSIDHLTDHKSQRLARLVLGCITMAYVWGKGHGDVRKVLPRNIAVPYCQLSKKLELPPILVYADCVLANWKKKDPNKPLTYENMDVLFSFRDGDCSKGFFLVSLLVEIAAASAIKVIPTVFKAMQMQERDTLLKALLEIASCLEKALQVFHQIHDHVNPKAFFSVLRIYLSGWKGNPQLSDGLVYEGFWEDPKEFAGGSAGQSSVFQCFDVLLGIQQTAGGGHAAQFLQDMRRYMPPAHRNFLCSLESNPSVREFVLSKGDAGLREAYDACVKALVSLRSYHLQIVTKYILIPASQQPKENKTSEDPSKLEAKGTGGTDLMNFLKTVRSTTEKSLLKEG
Take `CC(C)CN(c1ccc(C(CC(=O)O)C2CC2)cc1NC(=O)Nc1ccc(Cl)cc1F)C1CCOCC1` (racemic) [Example 1198, (+/−)-3-(3-(3-(4-Chloro-2-fluorophenyl)ureido)-4-(isobutyl(tetrahydro-2H-pyran-4-yl)amino)phenyl)-3-cyclopropylpropanoic acid]: the IC50 – broadly, the concentration needed to halve the response being measured – is less than 5 nM.

For `CCCN(c1ccc([C@@H](COC)CC(=O)O)cc1Nc1ccc(Cl)cc1)C1CCOCC1` (single isomer, unassigned) [Example 564], the IC50 is less than 5 nM.

As to `C[C@@H]1CN(c2ccc(C(C)(C)CC(=O)O)cc2Nc2ccc(C#N)cc2)C[C@H](C)O1` [Example 731, 3-(3-((4-Cyanophenyl)amino)-4-((2S,6R)-2,6-dimethylmorpholino)phenyl)-3-methylbutanoic acid], the IC50 was less than 50 nM.

For the compound `CCc1ccc(Nc2cc([C@H](CC)CC(=O)O)ccc2N(CC(C)(C)O)C2CCCCC2)cc1` (single isomer, unassigned) [Example 239], the IC50 is less than 50 nM.

As for `CCC(CC(=O)O)c1cc(F)c(N(CC(C)C)CC(C)C)c(Nc2ccc(C#N)cc2)c1` (single isomer, unassigned) [Example 107, 3-(3-((4-cyanophenyl)amino)-4-(diisobutylamino)-5-fluorophenyl)pentanoic acid], the IC50 is less than 5 nM.

As for `CC[C@@H](CC(=O)O)c1ccc(N(CC)C2CCOCC2)c(Nc2cnc3cnccn23)c1` (single isomer, unassigned) [Example 472], the IC50 is more than 50 nM.

Consider `CCOc1ncc(Nc2cc([C@H](CC)CC(=O)O)ccc2N2CCOC[C@@H]2C(C)C)cn1` (single isomer, unassigned) [Example 94], for which the IC50 was less than 50 nM.

`CC[C@H](CC(=O)O)c1ccc(N2C[C@@H](C)O[C@@H](C)C2)c(Nc2ccc(Cl)cc2)c1` (single isomer, unassigned) [Example 761]: the half-inhibitory concentration (IC50) is less than 50 nM.

In the case of `CCOc1ccc(CC(=O)Nc2cc(C(CC(=O)O)C3CC3)ccc2N(CC(C)C)C2CCCCC2)cc1` (single isomer, unassigned) [Example 1248, 3-(4-(Cyclohexyl(isobutyl)amino)-3-(2-(4-ethoxyphenyl)acetamido)phenyl)-3-cyclopropylpropanoic acid], the concentration for half-maximal inhibition (IC50) was less than 5 nM.

For `COCC(CC(=O)O)c1ccc(N(CC2CC2)C2CCOCC2)c(Nc2ccc(Cl)cc2)c1` (single isomer, unassigned) [Example 679, 3-(3-((4-Chlorophenyl)amino)-4-((cyclopropylmethyl)(tetrahydro-2H-pyran-4-yl)amino)phenyl)-4-methoxybutanoic acid], the IC50 is less than 5 nM.

As for `CCC(CC(=O)O)c1ccc(N(CC)C2CCCOC2)c(NC(=O)Nc2ccc(C)cc2)c1` (single isomer, unassigned) [Example 73 D2, 3-(4-(Ethyl(tetrahydro-2H-pyran-3-yl)amino)-3-(3-(p-tolyl)ureido)phenyl)pentanoic acid], the IC50 was less than 5 nM.

For the compound `Cc1ccc(NC(=O)Nc2cc(C(C)CC(=O)O)ccc2N(CC(C)C)C2CCOCC2)cc1` (single isomer, unassigned) [Example 958, 3-(4-(Isobutyl(tetrahydro-2H-pyran-4-yl)amino)-3-(3-(p-tolyl)ureido)phenyl)butanoic acid], the IC50 is less than 50 nM.

In the case of `CC[C@H](CC(=O)O)c1ccc(N(CC(C)C)C2CCS(=O)(=O)CC2)c(NC(=O)Nc2ccc(OC)cc2F)c1` (single isomer, unassigned) [Example 211], the IC50 was more than 50 nM.

Regarding `CC(C)(CC(=O)O)c1ccc(N2CCC[C@H]2C(C)(C)O)c(Nc2ccc(Cl)cc2)c1` [Example 808, (S)-3-(3-((4-chlorophenyl)amino)-4-(2-(2-hydroxypropan-2-yl)pyrrolidin-1-yl)phenyl)-3-methylbutanoic acid], the IC50 was less than 50 nM.

Take `CCC(CC(=O)O)c1cc(F)c(N(CC(C)C)CC(C)C)c(Nc2ccnc(N3CCOCC3)n2)c1` (single isomer, unassigned) [Example 105, 3-(4-(diisobutylamino)-3-fluoro-5-((2-morpholinopyrimidin-4-yl)amino)phenyl) pentanoic acid]: the IC50 was more than 50 nM.

`CCC(CC(=O)O)c1ccc(N(CC(C)C)C(C)C)c(Nc2ccc3nc(C)sc3c2)c1` (single isomer, unassigned) [Example 729, 3-(4-(isobutyl(isopropyl)amino)-3-((2-methylbenzo[d]thiazol-6-yl)amino)phenyl)pentanoic acid]: the IC50 was more than 50 nM.

Take `CCOc1ncc(Nc2cc([C@H](CC)CC(=O)O)ccc2N(CC)C2CCCCC2)cn1` (single isomer, unassigned) [Example 287]: the IC50 was less than 5 nM.

As to `COCC(CC(=O)O)c1ccc(N(CC(C)C)CC(C)C)c(NC(=O)Nc2cncnc2)c1` (racemic) [Example 996, (+/−)-3-(4-(Diisobutylamino)-3-(3-(pyrimidin-5-yl)ureido)phenyl)-4-methoxybutanoic acid], the IC50 is more than 50 nM.

For the compound `CCOc1ccc(Nc2cc([C@@H](CC)CC(=O)O)ccc2N2CCOC[C@@H]2C(C)C)cc1` (single isomer, unassigned) [Example 82], the IC50 was less than 50 nM.

Take `CCC(CC(=O)O)c1ccc(N2CCC[C@H]2C(C)(C)F)c(NC(=O)Nc2ccc(C)cc2)c1` (single isomer, unassigned) [Example 792]: the IC50 was more than 50 nM.

With `Cc1ccc(NC(=O)Nc2cc(C(C)CC(=O)O)c(F)cc2N(CC(C)C)C2CCCCC2)cc1` (racemic) [Example 955, (+/−)-3-(4-(Cyclohexyl(isobutyl)amino)-2-fluoro-5-(3-(p-tolyl)ureido)phenyl)butanoic acid], the IC50 is less than 5 nM.

For the compound `Cc1ccc(CC(=O)Nc2cc(C(C)CC(=O)O)ccc2N(CC(C)C)CC(C)C)cc1` (single isomer, unassigned) [Example 953, 3-(4-(Diisobutylamino)-3-(2-(p-tolyl)acetamido)phenyl)butanoic acid], the 50% inhibitory concentration (IC50) is more than 50 nM.

For `CCC(CC(=O)O)c1ccc(N(CC)C2CCOCC2)c(NC(=O)Nc2ccc(C)cc2)c1` (single isomer, unassigned) [Example 487 Enantiomer 1, 3-(4-(Ethyl(tetrahydro-2H-pyran-4-yl)amino)-3-(3-(p-tolyl)ureido)phenyl)pentanoic acid], the half-inhibitory concentration (IC50) was less than 5 nM.

Consider `CCOc1ccc(NC(=O)Nc2cc([C@H](CC)CC(=O)O)ccc2N(CC(C)C)C2CCS(=O)(=O)CC2)cc1` (single isomer, unassigned) [Example 212], for which the IC50 was more than 50 nM.

As for `CC[C@@H](CC(=O)O)c1ccc(N2CCOC[C@@H]2C(C)C)c(Nc2ccc(F)cc2)c1` (single isomer, unassigned) [Example 84], the IC50 is less than 50 nM.

Take `CCN(c1ccc([C@H](COC)CC(=O)O)cc1NC(=O)Nc1cc(C)no1)C1CCOCC1` (single isomer, unassigned) [Example 440]: the half-inhibitory concentration (IC50) was more than 50 nM.

As for `CC[C@H](CC(=O)O)c1ccc(N(CC)C2CCOCC2)c(NC(=O)Nc2ccc(OC)cc2)c1` (single isomer, unassigned) [Example 529], the IC50 was less than 50 nM.

Consider `CC[C@H](CC(=O)O)c1ccc(N(CC)C2CCOCC2)c(NC(=O)Nc2ccc(Cl)cc2)c1` (single isomer, unassigned) [Example 531], for which the 50% inhibitory concentration (IC50) was less than 5 nM.

As for `CCC(CC(=O)O)c1ccc(N(CC(C)C)C2CCCCC2)c(Nc2ccc(Cl)c(F)c2)c1` (single isomer, unassigned) [Example 310, 3-(3-((4-chloro-3-fluorophenyl)amino)-4-(cyclohexyl(isobutyl)amino)phenyl)pentanoic acid], the IC50 was less than 5 nM.

Take `CCC(CC(=O)O)c1ccc(N2C[C@@H](C)O[C@@H](C)C2)c(Nc2ccc3c(c2)OC(F)(F)O3)c1` (single isomer, unassigned) [Example 765]: the IC50 is less than 50 nM.

On to `CC[C@@H](CC(=O)O)c1ccc(N(CC)C2CCOCC2)c(Nc2ccc(OCC(F)(F)F)cc2)c1` (single isomer, unassigned) [Example 475], for which the IC50 was less than 5 nM.

For `CCC(CC(=O)O)c1ccc(N2CCOC[C@H]2C(C)C)c(Nc2ccc3nc(C)sc3c2)c1` (single isomer, unassigned) [Example 892], the IC50 was less than 50 nM.

For the compound `COCC(CC(=O)O)c1ccc(N(CC(C)C)CC(C)C)c(NC(=O)Nc2cncnc2)c1` (single isomer, unassigned) [997-2], the concentration for half-maximal inhibition (IC50) is less than 50 nM.

Regarding `CCC(CC(=O)O)c1cc(F)c(N(CC(C)C)CC(C)C)c(NC(=O)c2ccc(Cl)cc2)c1` (single isomer, unassigned) [Example 127, 3-(3-(4-Chlorobenzamido)-4-(diisobutylamino)-5-fluorophenyl)pentanoic acid], the IC50 is more than 50 nM.

For `CC(C)CN(CC(C)C)c1ccc(C(CC(=O)O)CN(C)C)cc1NC(=O)Nc1cncnc1` (racemic) [Example 1001, (+/−)-3-(4-(Disobutylamino)-3-(3-(pyrimidin-5-yl)ureido)phenyl)-4-(dimethylamino)butanoic acid], the IC50 was more than 50 nM.

Take `CCN(c1ccc([C@@H](COC)CC(=O)O)cc1NC(=O)Nc1cc(C)no1)C1CCOCC1` (single isomer, unassigned) [Example 429]: the IC50 was more than 50 nM.

As for `COCC(CC(=O)O)c1ccc(N(CC(C)C)C2CCCCC2)c(NC(=O)Cc2ccc(Cl)cc2F)c1` (single isomer, unassigned) [Example 1245, 3-(3-(2-(4-Chloro-2-fluorophenyl)acetamido)-4-(cyclohexyl(isobutyl)amino)phenyl)-4-methoxybutanoic acid], the half-inhibitory concentration (IC50) is less than 5 nM.

Turning to `CCc1ccc(Nc2cc([C@H](CC)CC(=O)O)ccc2N(CC)C2CCCCC2)cc1` (single isomer, unassigned) [Example 288], the IC50 was less than 50 nM.

Regarding `CC[C@H](CC(=O)O)c1ccc(N(CC)C2CCOCC2)c(Nc2cnc(OCC3CC3)nc2)c1` (single isomer, unassigned) [Example 520], the 50% inhibitory concentration (IC50) is less than 5 nM.
